Measured values published in patent US20090042951A1, “Blood Pressure Reduction in Salt-Sensitive Hypertension” (priority 2004, published 2009).

Tests used:
[1] = tested on: Dahl salt-sensitive (SS/Jr) rats; experiment: Telemetric arterial blood pressure monitoring in Dahl salt-sensitive rats on high salt diet; format: in vivo, rat; settings: for anti-hypertensive activity: found by the methods described herein
Protocol: (§1) Male Dahl salt-resistant (SR/Jr) rats (250-300 gm, Harlan, Indianapolis, Ind.) were used as controls. Non-salt-sensitive, spontaneously hypertensive rats (SHR) were also employed in some experiments. Each rat was housed individually with a 12 hour light/12 hour dark cycle. The animal use protocols were approved by the Chicago—West Side Veterans Administration Institutional Animal Care and Use Committee.
(§2) Arterial blood pressures in unrestrained rats were monitored using a model TA11PA-C20 (Data Science, International, St. Paul, Minn.) implantable telemetric blood pressure monitoring system. The rats were anesthetized using an intraperitoneal injection (50 mg/kg i.p.) of nembutol sodium solution prior to implantation of the monitor. The radio-transmitter catheter was inserted via a midline abdominal incision into the left femoral artery and sutured in place after the tip of the catheter was advanced into the proximal aorta. The catheter was tunneled under the skin and the body of the transmitter was positioned in a subcutaneous pocket near the right flank of the rat. Data acquisition began after normal diurnal blood pressure variability had been reestablished, typically about seven days after surgery. Continuous measurements of pulsatile central aortic blood pressure were recorded by a receiver placed under each rat's cage.
A baseline arterial blood pressure was established for each rat from continuous measurements made over a two day period prior to the start of an experiment. […] Monitoring continued for four additional days. […] The p-value in both cases is less than 0.05.

dogs = settings: administration of rolipram, increased cAMP; cited from earlier work
[2] = tested on: spontaneously hypertensive rats (SHR); experiment: Telemetric arterial blood pressure monitoring in spontaneously hypertensive rats on 8% NaCl diet; format: in vivo, rat; settings: single IP injection 10 mg/kg, continuous telemetric recording
Protocol: as §1
as §2, with “cage. […]” for “cage.”

O=c1c2cccnc2n(-c2cccc([N+](=O)[O-])c2)c(=O)n1Cc1ccncc1 [RS25344]
anti-hypertensive activity [1]: exhibit anti-hypertensive activity

COc1ccc(C(=O)Nc2c(Cl)cncc2Cl)cc1OC1CCCC1 [RP73401]
anti-hypertensive activity [1]: exhibit anti-hypertensive activity

COc1ccc(C2CNC(=O)C2)cc1OC1CCCC1 (stereo not drawn) [rolipram, Rolipram]
duration of drop in blood pressure ([1]; Dahl SS/Jr rat, 8% NaCl diet, single IP injection 10 mg/kg): > 2 days | effect on arterial blood pressure ([1]; Dahl SS/Jr rat, 8% NaCl diet, single IP injection 10 mg/kg, continuous telemetric recording): very significant and prolonged (>2 days) drop in blood pressure | anti-hypertensive activity [1]: exhibit anti-hypertensive activity | renal vascular resistance (dogs): reduces renal vascular resistance | secretion of electrolytes (dogs): promotes secretion of electrolytes | effect on arterial blood pressure [2]: brief, shallow dip in blood pressure immediately after rolipram injection followed by a gradual decline and recovery of blood pressure

CCn1c(=O)c2ccccc2n(-c2cccc([N+](=O)[O-])c2)c1=O [TVX2706]
anti-hypertensive activity [1]: exhibit anti-hypertensive activity
